Blank lines part the entries; values can stand above or below the compound they belong to. Where a SMILES comes first, the peptide text is derived from it. The star is where a group is joined. X1 = O=C(O)CN1CCN(CC(=O)O)CC(Cc2ccc(NC(=S)*)cc2)N(CC(=O)O)CC1
Columns and labels:
MC38 tumor–bearing mice [1] = experiment: FTY720 treatment of MC38 tumor–bearing mice under anti–PD-1 plus anti–CTLA-4; assay type: in vivo, mouse
Description: MC38 or B16-OVA tumor–bearing C57BL/6 mice were euthanized, and tumor tissues were harvested and digested with 10 U/mL collagenase I, 400 U/mL collagenase IV, and 30 U/mL DNase (Yuanye Bio-Technology) to generate single-cell suspensions. The following fluorescently labeled antibodies were then used for staining of different markers: anti-CD45 (clone 30-F11, BioLegend), anti-CD4 (clone RM4-5, eBioscience), anti-CD8 (clone 53-6.7, BioLegend), anti-NK1.1 (clone PK136, BioLegend), anti–granzyme B (clone QA16A02, BioLegend), and anti–IFN-γ (clone XMG1.2, BioLegend). For granzyme B and IFN-γ staining, cells were incubated in culture medium containing a cell activation cocktail (catalog 423303, BioLegend) at 37°C for 5 hours and then washed with permeabilization wash buffer (catalog 421002, BioLegend) before being stained with fluorescently labeled antibodies. Data collection and analysis were performed on a flow cytometer (Becton Dickinson).
The tumor sections were fixed with ice-cold acetone for 10 minutes and washed with PBS. Next, the slices were blocked with 1% BSA for 1 hour and incubated with rabbit anti–mouse granzyme B antibody (catalog 17215S, Cell Signaling Technology) or rabbit anti–mouse NK1.1 antibody (clone EPR22990-31, Abcam) overnight at 4°C. The slices were then visualized by incubation with FITC-conjugated secondary antibody (catalog E031220-01, Earthox) and DAPI (Biotium) under a confocal microscope (Leica).

MC38 tumor–bearing mice [2] = conditions: mouse, in vivo
Description: (§1) Small-animal PET scanning and image analysis were performed using a Super Nova PET/CT scanner ([sequence]). […] At the indicated times (0.5, 1, and 2 hours) after injection, 10-minute static PET scans were acquired. PET images were analyzed, and the region of interest–derived (ROI-derived) %ID/g values were calculated as described previously ([52]).
MC38 tumor-bearing C57BL/6 mice were pretreated with anti-PD-1 antibody
For the small-animal PET imaging studies, ten MC38 tumor-bearing C57BL/6 mice
CTLA-4 (clone 9D9; BioXcell) antibodies on days 0, 3, and 6 after the tumor size
grazytracer. Mice were anesthetized with 2% inhaled isoflurane, and 10-min static PET
scans were acquired at 0.5, 1, and 2 h postinjection using a small-animal Super Nova
PET/CT scanner ([sequence], Shanghai, China). The tumor %ID/g values and tumor-
to-muscle ratios of 68Ga-NOTA-GZP and 68Ga-grazytracer were calculated for

4T1 tumor–bearing mice = conditions: mouse, in vivo
Description: as §1

[3] = In vivo metabolic stability (serum and urine, radio-HPLC); design: species or system mouse; conditions: female C57BL/6 normal mice, 5.55 MBq i.v.
Description: μg/day on days 0, 3, and 6).
distribution of the radiotracer in the main organs. Mice were euthanized at 0.5, 1, and
and measured using a γ counter (Packard, Meriden, CT). The results are presented as
In vivo metabolic stability studies
grazytracer or 68Ga-NOTA-GZP.
and analyzed using radio-HPLC.

SMILES: CCCCCCCCc1ccc(CCC(N)(CO)CO)cc1 [FTY720]
effect on the antitumor effect of anti–PD-1 plus anti–CTLA-4 (MC38 tumor–bearing mice [1]; 25 μg i.p. on day –1, 10 μg daily day 0 to 12, n = 6–9): partially reversed the antitumor effect
body weight (MC38 tumor–bearing mice [1]; MC38 mice, n = 6–9): without influencing body weight
granzyme B secretion in tumors (immunofluorescence) (MC38 tumor–bearing mice [1]; MC38 tumors on day 6): reduced granzyme B secretion in tumors
levels of NK, CD4+ T and CD8+ T cells in tumor versus group without FTY720 (MC38 tumor–bearing mice [1]; flow cytometry, day 6, n = 5/group): significantly lower

change of tumor uptake from days 0 to 6, pseudoprogression MC38 model (MC38 tumor–bearing mice [2]): significantly increased
change of tumor uptake from days 0 to 6, true-progression 4T1 model (4T1 tumor–bearing mice): significantly increased
SMILES: OC[C@H]1OC(O)[C@H](F)[C@@H](O)[C@@H]1O (some centres unmarked) [^18F-FDG, ^18F-fluorodeoxyglucose]

in vivo metabolic stability in blood ([3]; serum at 0.5 hours after injection): favorable stability in the blood
in vivo metabolic stability in urine ([3]; urine at 0.5 hours after injection): some decomposition in urine
SMILES: CC[C@H](C)[C@H](NC(=O)CNC(=O)CNC(=O)CNC(=S)Nc1ccc(CC2CN(CC(=O)O)CCN(CC(=O)O)CCN2CC(=O)O)cc1)C(=O)N[C@@H](CCC(=O)O)C(=O)N[C@@H](Cc1ccccc1)C(=O)N[C@H](C=O)CC(=O)O (some centres unmarked) [^68Ga-NOTA-GZP, ^68Ga-1,4,7–triazacyclononane-1,4,7-triacetic acid–GZP, metal not drawn] (X1-GGGIEFD-aldehyde)
